Results on 4 compounds are retold here after PMC4979471 (Cell Death Discovery, 2015).

“Also recorded” adds a separate entry of the source. Read-outs that look alike come from different tables or passages of the source.

The test system of series [1] is mouse fibrosarcoma L929 cells. The series can be described thus: TNF+zVAD-induced necroptosis, CellTiter-Glo. In kind it is cell-based. Particulars: overnight, read-out: IC50 blocking necroptosis. The procedure:
(§1) Mouse fibrosarcoma L929 cells (ATCC# CCL-1) and human monocytic U937 cells (ATCC# CRL-1593.2) were cultured in RPMI media supplemented with 10% heat-inactivated FBS, 100 U/ml penicillin and […] streptomycin. BMDM were prepared from C57BL/6 mice by differentiation with 10 ng/ml M-CSF (R&D Systems) for 7 days and cultured in DMEM medium supplemented with 10% heat-inactivated FBS, 100 U/ml penicillin, 100 μg/ml streptomycin and 0.25 μg/ml amphotericin. Primary human neutrophils were isolated from human blood following the standard method comprised of sequential sedimentation in dextran, density centrifugation in Ficoll–Hypaque and lysis of contaminating red blood cells.
(§2) […] To evaluate the effect of RIP1 inhibitors, cells were pretreated with compound (dose–response) for 30 min. Induced cell death was evaluated 19–21 h later by measuring cellular ATP levels using CellTiter-Glo Luminescent Cell Viability assay (Promega, Fitchburg, WI, USA). To induce necroptosis in neutrophils, freshly isolated human neutrophils were stimulated with TNF (10 ng/ml), QVD-Oph (50 μM) and SMAC mimetic (100 nM). Induced cell death was evaluated as above.
(In general: In ATP-based viability assays light output follows the ATP content of the culture.)

For series [2], the system named is human monocytic U937 cells. The series can be described thus: TNF+zVAD-induced necroptosis, CellTiter-Glo. The note with it: U-937, U937, overnight, read-out: IC50 blocking necroptosis. In kind it is cell-based. As to the method: as §1, §2
Series [3] concerns the target T1, RIP1 (ATP-binding pocket) (Homo sapiens, UniProt Q13546).
T1 construct: GST-RipK1 (1–375) was purified; made in house
T1 sequence (Q13546 1-375): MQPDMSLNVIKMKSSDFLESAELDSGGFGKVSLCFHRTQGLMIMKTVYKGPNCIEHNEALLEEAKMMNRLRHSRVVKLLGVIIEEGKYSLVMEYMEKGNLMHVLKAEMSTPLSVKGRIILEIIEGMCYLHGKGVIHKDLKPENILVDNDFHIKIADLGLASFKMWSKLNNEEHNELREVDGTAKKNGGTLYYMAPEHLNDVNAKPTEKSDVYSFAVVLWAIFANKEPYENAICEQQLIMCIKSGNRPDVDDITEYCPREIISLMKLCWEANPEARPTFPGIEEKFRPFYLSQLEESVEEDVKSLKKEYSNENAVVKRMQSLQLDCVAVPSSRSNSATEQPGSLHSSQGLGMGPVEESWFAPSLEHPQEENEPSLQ
The series can be described thus: Fluorescent polarization (FP) binding assay. The procedure:
A FP-based binding assay was developed to quantitate interaction of novel test compounds at the ATP-binding pocket of RIP1, by competition with a fluorescently labeled ATP-competitive ligand, as previously described.[18] In brief, GST-RipK1 (1–375) was purified and was used at a final assay concentration of 10 nM.

In series [4] the test system is indoleamine-2,3-dioxygenase (IDO). The note with it: cited from earlier work.
The target of series [5] is T2, recombinant human IDO (Homo sapiens, UniProt P14902).
T2 construct: purchased R&D Systems (Minneapolis, MN, USA)
T2 sequence (P14902 whole entry): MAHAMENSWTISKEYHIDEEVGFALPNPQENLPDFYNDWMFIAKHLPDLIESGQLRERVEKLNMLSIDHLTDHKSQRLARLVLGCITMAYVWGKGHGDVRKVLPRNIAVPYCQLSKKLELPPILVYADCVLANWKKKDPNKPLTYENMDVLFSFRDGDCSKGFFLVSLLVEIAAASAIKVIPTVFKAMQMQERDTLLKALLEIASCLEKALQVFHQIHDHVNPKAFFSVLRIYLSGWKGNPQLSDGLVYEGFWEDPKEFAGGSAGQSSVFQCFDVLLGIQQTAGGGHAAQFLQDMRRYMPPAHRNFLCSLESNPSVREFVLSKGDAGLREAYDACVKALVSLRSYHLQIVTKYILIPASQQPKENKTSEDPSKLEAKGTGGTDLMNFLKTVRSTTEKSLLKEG
The series can be described thus: IDO enzymatic assay. It counts as biochemical. Particulars: in vitro enzymatic assay.
Experimental: IDO activity was determined as described by Takahashi et al.[25] using recombinant human IDO purchased from R&D Systems (Minneapolis, MN, USA). The yellow pigment derived from kynurenine was measured at 490 nm using the Spectramax microplate reader (Molecular Devices).

The test system of series [6] is C57BL/6 mice. The series can be described thus: TNF+zVAD-induced shock model (temperature loss). It counts as in vivo, mouse. Particulars: 15 min before TNF+zVAD. As to the method: Temperature was monitored over the course of 3 h by rectal probe.
The conditions of series [7]: cited from earlier work.
Series [8] is described as follows: Pharmacokinetic profile after i.p. administration. It counts as in vivo, C57BL/6 mice. The note with it: 10 mg/kg i.p., mice. The procedure:
Briefly, pharmacokinetic studies were conducted using n=3 animals per group for each compound. […] Blood samples were obtained at various time points following intraperitoneal injection and diluted 1 : 1 with water prior to storage at −80 °C.
Prior to bioanalysis, samples were thawed and each analyte was isolated using a method based on protein precipitation. The resulting supernatant was injected into an LC/MS/MS system optimized for detection of the compound of interest. Data were reported as quantitative drug concentrations as determined by standard calibration curve analysis. Using these optimized conditions, the typical lower limit of quantitation achieved was 1.00 ng/ml for both compounds.

Series [9] has as its target T3, RIP1 kinase (Homo sapiens, UniProt Q13546).
T3 construct: 10 nM GST-RIPK1 (1–375) and 50 μM ATP; made in house
The series can be described thus: ADP-Glo kinase assay. It counts as biochemical. As to the method: Compound potency against RIP1 kinase activity was determined using an ADP-Glo luminescence assay, which measures the conversion of ATP to ADP as previously described.[18] In brief, the primary reaction consisted of 10 nM GST-RIPK1 (1–375) and 50 μM ATP in 50 mM HEPES pH 7.5, 50 mM NaCl, 30 mM MgCl2, 1 mM DTT, 0.5 mg/ml BSA, and 0.02% CHAPS. Five microliter of enzyme and 5 μl of ATP were added to the plate at twice the final assay concentration and incubated at room temperature for 4 h. The luminescence was measured on a plate reader. Test compound inhibition was expressed as percent inhibition of internal assay controls.
Background: ADP-Glo first removes unused ATP, then detects ADP through luciferase.

On to `CN1C(=O)C(Cc2c[nH]c3ccccc23)NC1=S` (stereo not shown) [Nec-1, Necrostatin-1, reference compound], for which the IC50 (usually the point on the concentration scale where inhibition reaches its midpoint) in series [1] worked out at 1 µM; in series [2], 2 µM; in [3] it was 2 µM; in series [9] (read-out: IC50 blocking RIP1 kinase activity), 1 µM. In series [3], the “drop off in potency relative to GSK′963 in the FP binding assay” value was ~ 70 fold. Further, the IDO inhibition entry in series [4] (ref 22) is “known to inhibit”; in [4] (ref 25), “potent inhibitor”. Also, the “effect on IDO activity” value in [5] is given as “no effect”. The results for the “protection from TNF+zVAD-induced temperature loss” value in [6] (0.2 mg/kg i.p.) and in [6] (2 mg/kg i.p.) were “no effect” and “minimal level of protection; also recorded: no significant protection”, respectively. Further, the in vivo half-life result in [7] (ref 23) is given as “short”. The metabolic stability entry in series [7] (ref 23) is “quite limited”. Also, the “exposure compared with GSK′963” value in series [8] is ~ 10 fold.

As for `CC(C)(C)C(=O)N1N=CC[C@@H]1c1ccccc1` [GSK′962], the “activity in the FP binding assay” value in series [3] is “no activity”. Besides, the “protection from TNF+zVAD-induced temperature loss” value in [6] (20 mg/kg i.p.) is on record as “no effect”. The “activity in blocking RIP1 kinase activity” value in series [9] was “inactive”.

In the case of `CC1=CC(=O)c2ccccc2C1=O` [menadione, reference compound], the “effect on IDO activity” value in [5] is “inhibited enzyme activity with the expected potency”.

`CN1C(=O)NC(Cc2c[nH]c3c(Cl)cccc23)C1=O` (stereo not shown) [Nec-1s, 7-Cl-O-Nec-1]: the IDO activity entry in series [4] (ref 24) is on record as “lacks IDO activity”. In addition, in [7] (ref 24), the pharmacokinetic properties result is on record as “improved pharmacokinetic properties”.
